ChEMBL document CHEMBL4725253, “Discovery of quinoline-based irreversible BTK inhibitors” (Bioorg Med Chem Lett, 2020)

Legend:
[1] = molecular target: Tyrosine-protein kinase Blk (Homo sapiens, UniProt P51451); experiment: Inhibition of recombinant full length human His-tagged BLK cytoplasmic domain expressed in baculovirus expression system using tyrosine-1 peptide as substrate preincubated for 1 hr in presence of ATP by Z'-LYTE assay
[2] = molecular target: Epidermal growth factor receptor (Homo sapiens, UniProt P00533); experiment: Inhibition of EGFR (unknown origin) expressed in baculovirus system using fluorescein labeled PDGFR-tide substrate peptide preincubated for 60 mins followed by ATP addition and measured after 60 mins by IMAP assay
Epidermal growth factor receptor, sequence (P00533 whole entry, the tested form may be a part): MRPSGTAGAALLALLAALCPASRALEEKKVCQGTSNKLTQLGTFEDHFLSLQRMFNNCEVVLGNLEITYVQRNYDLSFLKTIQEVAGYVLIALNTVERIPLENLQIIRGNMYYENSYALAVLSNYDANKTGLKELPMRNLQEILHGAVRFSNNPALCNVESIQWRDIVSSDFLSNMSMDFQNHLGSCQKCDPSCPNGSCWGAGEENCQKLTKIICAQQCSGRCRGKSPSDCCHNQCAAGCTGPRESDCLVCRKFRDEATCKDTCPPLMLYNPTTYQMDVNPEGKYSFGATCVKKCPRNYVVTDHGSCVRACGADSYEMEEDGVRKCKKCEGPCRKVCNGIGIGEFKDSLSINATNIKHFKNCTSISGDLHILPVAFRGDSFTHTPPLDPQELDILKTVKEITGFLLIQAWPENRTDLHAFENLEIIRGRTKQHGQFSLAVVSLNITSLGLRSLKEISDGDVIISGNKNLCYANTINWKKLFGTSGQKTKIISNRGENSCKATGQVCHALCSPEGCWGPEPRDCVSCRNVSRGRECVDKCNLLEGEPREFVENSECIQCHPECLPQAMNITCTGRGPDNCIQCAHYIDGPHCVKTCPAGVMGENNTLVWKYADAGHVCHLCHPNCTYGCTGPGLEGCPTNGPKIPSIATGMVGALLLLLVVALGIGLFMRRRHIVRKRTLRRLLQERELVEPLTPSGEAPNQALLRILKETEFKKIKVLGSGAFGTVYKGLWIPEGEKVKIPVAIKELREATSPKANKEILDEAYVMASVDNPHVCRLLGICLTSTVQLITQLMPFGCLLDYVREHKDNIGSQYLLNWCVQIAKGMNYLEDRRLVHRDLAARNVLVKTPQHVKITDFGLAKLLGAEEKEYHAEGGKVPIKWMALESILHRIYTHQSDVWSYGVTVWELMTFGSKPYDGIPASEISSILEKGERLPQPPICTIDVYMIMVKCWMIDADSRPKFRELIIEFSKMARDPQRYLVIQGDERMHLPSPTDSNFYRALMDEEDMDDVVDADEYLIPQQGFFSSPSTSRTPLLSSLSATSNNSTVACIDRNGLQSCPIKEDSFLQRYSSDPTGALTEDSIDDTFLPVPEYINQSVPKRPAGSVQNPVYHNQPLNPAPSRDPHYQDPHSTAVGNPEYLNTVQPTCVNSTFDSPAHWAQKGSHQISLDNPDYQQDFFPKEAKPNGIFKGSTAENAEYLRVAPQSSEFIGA

[3] = molecular target: Receptor tyrosine-protein kinase erbB-4 (Homo sapiens, UniProt Q15303); experiment: Inhibition of recombinant human N-terminal GST-tagged ERBB4 catalytic domain (708 to 993 residues) expressed in baculovirus expression system using tyrosine-1 peptide as substrate preincubated for 1 hr in presence of ATP by Z'-LYTE assay
Receptor tyrosine-protein kinase erbB-4, sequence (Q15303 whole entry, the tested form may be a part): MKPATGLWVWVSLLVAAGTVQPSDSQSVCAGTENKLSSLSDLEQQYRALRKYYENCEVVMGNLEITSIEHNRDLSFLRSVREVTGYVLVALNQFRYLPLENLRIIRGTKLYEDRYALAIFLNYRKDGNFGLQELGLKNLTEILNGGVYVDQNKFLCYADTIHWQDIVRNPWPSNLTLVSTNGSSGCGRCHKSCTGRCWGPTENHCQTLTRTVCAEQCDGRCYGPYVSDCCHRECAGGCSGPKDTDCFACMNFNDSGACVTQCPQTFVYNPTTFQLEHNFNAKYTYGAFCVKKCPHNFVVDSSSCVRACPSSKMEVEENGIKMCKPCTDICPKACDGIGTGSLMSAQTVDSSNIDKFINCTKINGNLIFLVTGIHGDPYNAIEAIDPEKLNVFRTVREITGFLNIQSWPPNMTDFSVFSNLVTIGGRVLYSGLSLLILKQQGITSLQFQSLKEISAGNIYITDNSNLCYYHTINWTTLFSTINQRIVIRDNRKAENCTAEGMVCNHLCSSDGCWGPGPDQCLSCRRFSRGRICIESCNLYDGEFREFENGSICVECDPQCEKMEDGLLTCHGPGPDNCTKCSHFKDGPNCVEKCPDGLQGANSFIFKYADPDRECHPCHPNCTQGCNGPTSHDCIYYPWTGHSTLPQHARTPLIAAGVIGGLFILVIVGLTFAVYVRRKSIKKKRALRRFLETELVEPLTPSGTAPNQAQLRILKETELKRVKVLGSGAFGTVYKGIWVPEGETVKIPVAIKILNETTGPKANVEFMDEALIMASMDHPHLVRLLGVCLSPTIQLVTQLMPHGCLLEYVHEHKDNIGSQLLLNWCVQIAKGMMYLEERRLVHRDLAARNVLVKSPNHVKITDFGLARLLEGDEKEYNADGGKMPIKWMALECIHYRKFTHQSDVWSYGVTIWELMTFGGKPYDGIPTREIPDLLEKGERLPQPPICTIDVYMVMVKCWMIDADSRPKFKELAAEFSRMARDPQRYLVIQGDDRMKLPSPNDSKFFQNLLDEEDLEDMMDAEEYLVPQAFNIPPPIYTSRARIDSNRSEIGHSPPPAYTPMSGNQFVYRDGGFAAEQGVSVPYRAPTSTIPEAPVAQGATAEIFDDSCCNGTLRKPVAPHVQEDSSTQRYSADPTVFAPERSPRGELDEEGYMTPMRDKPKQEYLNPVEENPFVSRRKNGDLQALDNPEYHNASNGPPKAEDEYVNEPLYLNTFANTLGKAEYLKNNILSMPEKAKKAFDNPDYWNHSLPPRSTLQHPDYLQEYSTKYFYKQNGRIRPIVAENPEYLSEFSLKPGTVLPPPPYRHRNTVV

[4] = molecular target: T1, Tyrosine-protein kinase Tec (Homo sapiens, UniProt P42680); experiment: Inhibition of His-tagged recombinant human TEC expressed in baculovirus expression system preincubated for 1 hr by Z'lyte assay
T1 sequence (P42680 whole entry): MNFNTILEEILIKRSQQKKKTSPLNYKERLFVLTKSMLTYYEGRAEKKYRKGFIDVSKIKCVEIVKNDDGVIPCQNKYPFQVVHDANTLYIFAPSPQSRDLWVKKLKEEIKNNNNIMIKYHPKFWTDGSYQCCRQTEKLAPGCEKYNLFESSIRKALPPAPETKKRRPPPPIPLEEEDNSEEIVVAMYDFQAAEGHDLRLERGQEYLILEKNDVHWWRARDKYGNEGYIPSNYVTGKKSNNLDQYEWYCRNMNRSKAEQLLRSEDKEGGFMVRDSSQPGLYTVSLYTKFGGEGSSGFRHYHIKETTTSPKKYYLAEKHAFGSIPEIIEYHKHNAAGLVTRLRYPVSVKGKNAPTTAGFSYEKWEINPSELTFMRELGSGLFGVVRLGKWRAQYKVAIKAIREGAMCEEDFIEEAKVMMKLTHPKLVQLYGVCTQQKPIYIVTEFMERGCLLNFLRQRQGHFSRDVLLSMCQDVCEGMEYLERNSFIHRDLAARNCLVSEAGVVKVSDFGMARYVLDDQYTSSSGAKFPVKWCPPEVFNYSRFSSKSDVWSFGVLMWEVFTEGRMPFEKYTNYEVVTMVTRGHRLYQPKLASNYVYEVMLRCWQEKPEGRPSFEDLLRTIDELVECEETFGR

[5] = molecular target: Receptor tyrosine-protein kinase erbB-2 (Homo sapiens, UniProt P04626); experiment: Inhibition of His-tagged human recombinant ERBB2 (676 to 1255 residues) expressed in baculovirus expression system using Tyr 06 as substrate preincubated for 1 hr in presence of ATP by Z'-LYTE assay
Receptor tyrosine-protein kinase erbB-2, sequence (P04626 whole entry, the tested form may be a part): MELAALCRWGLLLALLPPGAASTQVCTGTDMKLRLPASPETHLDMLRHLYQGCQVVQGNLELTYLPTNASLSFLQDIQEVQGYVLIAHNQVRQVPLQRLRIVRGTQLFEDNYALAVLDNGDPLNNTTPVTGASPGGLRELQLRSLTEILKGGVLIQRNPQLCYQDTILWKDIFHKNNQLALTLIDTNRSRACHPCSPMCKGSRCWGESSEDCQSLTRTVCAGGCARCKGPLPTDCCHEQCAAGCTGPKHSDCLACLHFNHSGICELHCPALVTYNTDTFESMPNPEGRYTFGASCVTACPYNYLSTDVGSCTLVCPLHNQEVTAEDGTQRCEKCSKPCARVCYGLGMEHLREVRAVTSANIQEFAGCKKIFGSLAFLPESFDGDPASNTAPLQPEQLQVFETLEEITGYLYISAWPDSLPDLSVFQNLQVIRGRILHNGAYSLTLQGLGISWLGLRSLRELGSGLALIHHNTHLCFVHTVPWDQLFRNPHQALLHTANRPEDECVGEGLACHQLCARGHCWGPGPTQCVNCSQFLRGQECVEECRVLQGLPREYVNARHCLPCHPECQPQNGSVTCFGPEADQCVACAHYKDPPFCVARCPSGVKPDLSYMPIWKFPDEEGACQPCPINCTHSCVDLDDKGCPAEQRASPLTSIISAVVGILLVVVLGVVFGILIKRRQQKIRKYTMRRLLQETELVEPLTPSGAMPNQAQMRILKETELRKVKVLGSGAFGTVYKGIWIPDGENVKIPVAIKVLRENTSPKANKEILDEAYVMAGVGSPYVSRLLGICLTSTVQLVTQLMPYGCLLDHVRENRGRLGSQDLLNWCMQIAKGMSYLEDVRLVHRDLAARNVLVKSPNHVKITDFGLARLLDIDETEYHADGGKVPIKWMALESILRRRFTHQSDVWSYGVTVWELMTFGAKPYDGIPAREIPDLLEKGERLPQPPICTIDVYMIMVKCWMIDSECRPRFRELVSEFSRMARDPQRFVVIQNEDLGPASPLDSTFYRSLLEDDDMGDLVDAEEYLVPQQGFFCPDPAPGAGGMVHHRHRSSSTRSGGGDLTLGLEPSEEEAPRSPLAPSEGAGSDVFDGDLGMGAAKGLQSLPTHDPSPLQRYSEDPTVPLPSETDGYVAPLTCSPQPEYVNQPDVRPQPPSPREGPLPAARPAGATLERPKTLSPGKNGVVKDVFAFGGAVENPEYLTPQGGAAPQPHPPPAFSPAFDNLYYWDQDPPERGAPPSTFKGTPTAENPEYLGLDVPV

[6] = Inhibition of goat anti-human IgM F(ab')-stimulated CD69 cell surface expression in human PBMC preincubated for 2 hrs followed by anti-human IgM stimulation for 18 hrs by flow cytometric analysis; format: functional, tissue-based
[7] = molecular target: T2, Tyrosine-protein kinase TXK (Homo sapiens, UniProt P42681); experiment: Inhibition of recombinant human N-terminal GST-tagged TXK (260 to 527 residues) expressed in baculovirus expression system using tyrosine-6 peptide as substrate preincubated for 1 hr in presence of ATP by Z'-LYTE assay
T2 sequence (P42681 whole entry): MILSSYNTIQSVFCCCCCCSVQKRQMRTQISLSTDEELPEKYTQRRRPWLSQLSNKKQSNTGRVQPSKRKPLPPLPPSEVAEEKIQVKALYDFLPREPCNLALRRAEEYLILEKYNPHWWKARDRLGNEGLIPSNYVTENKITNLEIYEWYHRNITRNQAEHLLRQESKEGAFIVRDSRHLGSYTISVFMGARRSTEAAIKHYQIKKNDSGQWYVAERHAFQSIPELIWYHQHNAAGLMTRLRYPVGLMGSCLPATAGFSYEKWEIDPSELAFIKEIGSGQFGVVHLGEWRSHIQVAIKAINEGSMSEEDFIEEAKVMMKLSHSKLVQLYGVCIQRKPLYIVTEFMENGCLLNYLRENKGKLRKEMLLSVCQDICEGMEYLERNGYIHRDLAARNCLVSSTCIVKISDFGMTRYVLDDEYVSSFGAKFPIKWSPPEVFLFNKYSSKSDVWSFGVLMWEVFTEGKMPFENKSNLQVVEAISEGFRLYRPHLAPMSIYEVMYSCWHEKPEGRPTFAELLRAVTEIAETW

[8] = molecular target: T3, Tyrosine-protein kinase ITK/TSK (Homo sapiens, UniProt Q08881); experiment: Inhibition of recombinant full length human GST-tagged ITK expressed in baculovirus expression system using tyrosine-1 peptide as substrate preincubated for 1 hr in presence of ATP by Z'-LYTE assay
T3 sequence (Q08881 whole entry): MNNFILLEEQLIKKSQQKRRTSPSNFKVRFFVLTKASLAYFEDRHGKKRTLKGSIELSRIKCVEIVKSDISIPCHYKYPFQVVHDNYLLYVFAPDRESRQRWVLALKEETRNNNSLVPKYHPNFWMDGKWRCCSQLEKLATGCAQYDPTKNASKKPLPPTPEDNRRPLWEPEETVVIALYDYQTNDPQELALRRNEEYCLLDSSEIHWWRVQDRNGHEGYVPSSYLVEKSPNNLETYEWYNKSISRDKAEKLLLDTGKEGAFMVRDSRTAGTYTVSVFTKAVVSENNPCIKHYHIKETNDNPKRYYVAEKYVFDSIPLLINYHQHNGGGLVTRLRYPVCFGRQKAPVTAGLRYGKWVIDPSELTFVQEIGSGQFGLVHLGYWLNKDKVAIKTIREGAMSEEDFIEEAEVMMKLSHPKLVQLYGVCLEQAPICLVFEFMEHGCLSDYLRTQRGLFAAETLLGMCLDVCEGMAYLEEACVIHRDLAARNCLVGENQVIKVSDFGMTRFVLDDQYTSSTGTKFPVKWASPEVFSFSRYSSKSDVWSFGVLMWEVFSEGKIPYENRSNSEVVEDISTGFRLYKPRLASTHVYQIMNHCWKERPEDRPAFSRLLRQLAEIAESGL

[9] = molecular target: Tyrosine-protein kinase BTK (Homo sapiens, UniProt Q06187); experiment: Inhibition of His-tagged recombinant human His-tagged full length BTK expressed in baculovirus expression system using Tyr01 peptide as substrate preincubated for 1 hr by Z'lyte assay
Tyrosine-protein kinase BTK, sequence (Q06187 whole entry): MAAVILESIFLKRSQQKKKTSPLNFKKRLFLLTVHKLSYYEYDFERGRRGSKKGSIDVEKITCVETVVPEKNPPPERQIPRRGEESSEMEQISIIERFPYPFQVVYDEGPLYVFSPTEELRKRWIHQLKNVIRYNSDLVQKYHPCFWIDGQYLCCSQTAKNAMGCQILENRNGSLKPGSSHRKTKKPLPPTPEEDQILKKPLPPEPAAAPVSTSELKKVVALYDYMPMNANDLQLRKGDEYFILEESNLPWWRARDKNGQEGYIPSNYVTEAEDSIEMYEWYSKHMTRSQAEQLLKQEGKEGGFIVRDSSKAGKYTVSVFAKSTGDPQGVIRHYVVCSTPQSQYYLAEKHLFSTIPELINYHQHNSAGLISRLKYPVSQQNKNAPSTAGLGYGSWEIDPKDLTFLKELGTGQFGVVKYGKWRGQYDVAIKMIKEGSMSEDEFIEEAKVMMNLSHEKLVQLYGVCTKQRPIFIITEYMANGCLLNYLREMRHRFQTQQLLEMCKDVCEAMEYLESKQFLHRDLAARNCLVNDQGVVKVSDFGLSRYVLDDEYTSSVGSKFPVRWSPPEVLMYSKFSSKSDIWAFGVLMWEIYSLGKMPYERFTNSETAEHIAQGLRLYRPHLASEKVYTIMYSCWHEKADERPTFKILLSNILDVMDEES

[10] = Inhibition of anti-human alphaIgM-stimulated MIP1beta production in human Ramos B cells preincubated for 1 hr followed by anti-human IgM stimulation for 6 hrs by ELISA; format: functional, cell-based
Blood = experiment: Inhibition of mouse anti-human anti-IgD-stimulated CD69 cell surface expression in human whole blood preincubated for 2 hrs followed by anti-human anti-IgD stimulation for 18 hrs by flow cytometric analysis; format: functional, tissue-based

Tyrosine-protein kinase Blk, sequence (P51451 whole entry, the tested form may be a part): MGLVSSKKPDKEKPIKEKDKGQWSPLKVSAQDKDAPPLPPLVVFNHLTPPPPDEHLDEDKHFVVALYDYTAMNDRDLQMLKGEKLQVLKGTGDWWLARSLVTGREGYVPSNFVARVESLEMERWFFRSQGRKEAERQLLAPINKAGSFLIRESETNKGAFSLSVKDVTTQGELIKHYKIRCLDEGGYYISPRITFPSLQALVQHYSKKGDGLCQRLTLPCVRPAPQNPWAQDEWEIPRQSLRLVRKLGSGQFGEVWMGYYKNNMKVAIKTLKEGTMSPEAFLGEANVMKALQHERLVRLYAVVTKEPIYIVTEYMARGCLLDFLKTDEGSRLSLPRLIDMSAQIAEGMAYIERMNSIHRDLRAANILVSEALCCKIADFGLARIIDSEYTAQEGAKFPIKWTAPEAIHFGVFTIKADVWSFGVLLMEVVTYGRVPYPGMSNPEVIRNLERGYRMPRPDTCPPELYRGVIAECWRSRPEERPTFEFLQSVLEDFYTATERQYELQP

Row | IC50 [1] [nM] | IC50 [2] [nM] | IC50 [3] [nM] | IC50 [4] [nM] | IC50 [5] [nM] | EC50 [6] [nM] | IC50 [7] [nM] | IC50 [8] [nM] | IC50 [9] [nM] | EC50 [10] [nM] | EC50 (Blood) [nM] | Structure (SMILES)
1 | 72 | > 1000 | 37 | 219 | > 1000 | 4.1 | 229 | > 1000 | 8.3 | 15 | 74 | CC#CC(=O)Nc1cc2c(Oc3ccc(C(=O)Nc4ccccn4)cc3)ccnc2cc1OCCN1CCOCC1
2 | 8.3 | 33 | 901 | 184 | 41 | 1.8 | 19 | 916 | 1.5 | 4.1 | 13 | COc1cc2nccc(Oc3ccc(C(=O)Nc4ccccn4)cc3)c2cc1NC(=O)C#CCCN1CCOCC1
3 | 21.2 | 200 | 16 | 38 | 268 | 15 | 294 | > 1000 | 4 | 22 | 167 | C=CC(=O)Nc1ccc2nccc(Oc3ccc(C(=O)Nc4cc(CC)ccn4)cc3)c2c1
